Data published in PubChem BioAssay AID2060611 (Molecular Pharmacology Branch, DTP, NCI, 2025).

Tested on: 628569-122-R-J1-PDC complex spheroid viability
Test: Anticancer human tumor 628569-122-R-J1-PDC patient-derived head and neck squamous carcinoma cell line growth inhibition [CLK]
Conditions: for IC50: curve of first compound; for viability, T/C: stronger effect = lower value
From the text: A high-throughput screen of multi-cell type tumor spheroids was designed to identify active combinations of […] and targeted small molecules. Complex spheroids include a stromal component modeled by human endothelial cells (HUVEC) and fibroblasts modeled by human mesenchymal stem cells (MSCs). The concentration ranges selected for each drug and investigational agent were based upon clinically achievable concentrations if the clinical Cmax of the agent was known.
Compounds. The drugs and investigational agents: cirtuvivint (SM08502; NSC835563), CC-671 (NSC850746), vemurafenib (NSC761431), tapotoclax (NSC804041), sotorasib (NSC818433), adagrasib (NSC831453), MRTX-1133 (NSC836407), BAY2416964 (NSC825713), copanlisib (NSC816437), inavolisib (NSC800729), abemaciclib (NSC768073), osimertinib (NSC779217), entinostat (NSC756642), eltanexor (KPT-8602, NSC794443), venetoclax (NSC766270), ceralasertib (NSC777638), bortezomib (NSC756655), olaparib (NSC753686), talazoparib (NSC767125), alisertib (NSC759677), peposertib (NSC802822), gemcitabine (NSC613327), 5-fluorouracil (NSC19893), SN-38 (NSC673596), oxaliplatin (NSC266046), paclitaxel (NSC125973), and doxorubicin (NSC123127), were obtained from the National Cancer Institute (NCI) Developmental Therapeutics Program Chemical Repository. The FDA-approved anticancer drug set is available from the Developmental Therapeutics Program at https://dtp.cancer.gov/organization/dscb/obtaining/available plates.htm. […] The stock solutions were prepared in dimethyl sulfoxide (DMSO, Sigma-Aldrich, St. Louis, MO, cat. D2650), except for the platinum complexes which were prepared in saline (Quality Biological, Gaithersburg, MD, cat. 114-055-101), at 800-fold the tested concentration and stored at -70 degrees C prior to their use. All drugs and investigational agents were tested over a range starting from a high concentration at or near the clinical Cmax and decreasing in half-log increments. If the clinical Cmax for an agent had not been determined, the highest concentration tested was 10 microM.
Cell Culture. All cells were maintained in an incubator at 37 degrees C and 5% CO2 with 95% humidity. The PDC lines were cultured according to standard operating procedures established by the NCI PDMR. Briefly, all PDCs were thawed and cultured in Matrigel-coated flasks prepared with a working solution of 1X Ham's F-12 nutrient mix, without supplementation (Invitrogen, Waltham, MA, cat. 11765054), 100 U/mL penicillin-streptomycin (Invitrogen, cat. 15140122), and 2.5% Matrigel (Corning Inc., Corning, NY, cat. 354248) for the first three passages. The 947758-054-R-J2-PDC line was cultured in 6B/Colon 1A media, which includes advanced DMEM/F-12 (Thermo Fisher Scientific, cat. 12634028), 10 mM HEPES (Thermo Fisher Scientific, cat. 15630080), 1X GlutaMAX supplement (Thermo Fisher Scientific, cat. 35050061), 0.1 mg/mL primocin (InvivoGen, cat. ant-pm-2), 10% defined fetal bovine serum, heat inactivated (HyClone Laboratories Inc., cat. SH30070.03HI), 1.25 mM N-Acetyl-L-cysteine (Sigma-Aldrich, cat. A9165), 10 mM nicotinamide (Sigma-Aldrich, cat. N0636), 1X B-27 supplement (Thermo Fisher Scientific, cat. 17504044), 1X N-2 supplement (Thermo Fisher Scientific, cat. 17502048), and 10 microM Y-27632 dihydrochloride (Tocris Bioscience, cat. 1254). The 876862-298-R-J1-PDC was cultured in 6E media, which includes all 6B/Colon 1A media components plus 50% L-WRN conditioned media (ATCC, cat. CRL-3276), 50 ng/mL recombinant human EGF recombinant protein (hEGF; Thermo Fisher Scientific, cat. PHG0311), 10 ng/mL recombinant human fibroblast growth factor 10 (hGFG-10; PeproTech, cat. 100-26), 1 ng/mL recombinant human fibroblast growth factor 2 (hFGF-2; PeproTech, cat. 100-18B), and 1 µM prostaglandin E2 (PGE2; Tocris, cat. 2296). The 227483-062-R1-J1-PDC line was cultured in Panc media, containing all 6E components except hFGF-2, with the addition of 500 nM SB-431542 (Selleckchem, cat. S1067) and 10 nM gastrin (Tocris, cat. 3006). […]
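Note: spheroids exposed to agents for seven days before readout.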
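Throughout, for viability, T/C: 100% = DMSO vehicle control viability.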

Q: What does the source list for `CCCS(=O)(=O)Nc1ccc(F)c(C(=O)c2c[nH]c3ncc(-c4ccc(Cl)cc4)cc23)c1F` + CNC(=O)c1ccc(Nc2nc(OC3CCCC3)c3c(-c4ccc5nc(C)oc5c4)c[nH]c3n2)c(OC)c1?
A: IC50 (second compound 0.0316 µM): > 10 µM; IC50 (second compound 0.1 µM): > 10 µM; IC50 (second compound 0.316 µM): > 10 µM; IC50 (second compound 1 µM): < 0.0316 µM; IC50 (second compound 3.16 µM): < 0.0316 µM; IC50 (second compound 10 µM): < 0.0316 µM; viability, T/C (second compound 0.0316 µM, first compound 0.0316 µM): 85.7%; viability, T/C (second compound 0.0316 µM, first compound 0.1 µM): 86.2%; viability, T/C (second compound 0.0316 µM, first compound 0.316 µM): 72.4%; viability, T/C (second compound 0.0316 µM, first compound 1 µM): 90.2%; viability, T/C (second compound 0.0316 µM, first compound 3.16 µM): 91%; viability, T/C (second compound 0.0316 µM, first compound 10 µM): 73.5%; viability, T/C (second compound 0.1 µM, first compound 0.0316 µM): 58%; viability, T/C (second compound 0.1 µM, first compound 0.1 µM): 63.7%; viability, T/C (second compound 0.1 µM, first compound 0.316 µM): 54%; viability, T/C (second compound 0.1 µM, first compound 1 µM): 57.4%; viability, T/C (second compound 0.1 µM, first compound 3.16 µM): 62%; viability, T/C (second compound 0.1 µM, first compound 10 µM): 68.4%; viability, T/C (second compound 0.316 µM, first compound 0.0316 µM): 51.7%; viability, T/C (second compound 0.316 µM, first compound 0.1 µM): 49.9%; viability, T/C (second compound 0.316 µM, first compound 0.316 µM): 49.7%; viability, T/C (second compound 0.316 µM, first compound 1 µM): 64.8%; viability, T/C (second compound 0.316 µM, first compound 3.16 µM): 49.6%; viability, T/C (second compound 0.316 µM, first compound 10 µM): 56%; viability, T/C (second compound 1 µM, first compound 0.0316 µM): 48%; viability, T/C (second compound 1 µM, first compound 0.1 µM): 42.3%; viability, T/C (second compound 1 µM, first compound 0.316 µM): 43.4%; viability, T/C (second compound 1 µM, first compound 1 µM): 45.7%; viability, T/C (second compound 1 µM, first compound 3.16 µM): 52.3%; viability, T/C (second compound 1 µM, first compound 10 µM): 50.9%; viability, T/C (second compound 3.16 µM, first compound 0.0316 µM): 43.9%; viability, T/C (second compound 3.16 µM, first compound 0.1 µM): 42.1%; viability, T/C (second compound 3.16 µM, first compound 0.316 µM): 46.1%; viability, T/C (second compound 3.16 µM, first compound 1 µM): 44.2%; viability, T/C (second compound 3.16 µM, first compound 3.16 µM): 53%; viability, T/C (second compound 3.16 µM, first compound 10 µM): 45.7%; viability, T/C (second compound 10 µM, first compound 0.0316 µM): 39.7%; viability, T/C (second compound 10 µM, first compound 0.1 µM): 39.1%; viability, T/C (second compound 10 µM, first compound 0.316 µM): 40.8%; viability, T/C (second compound 10 µM, first compound 1 µM): 34.7%; viability, T/C (second compound 10 µM, first compound 3.16 µM): 50.4%; viability, T/C (second compound 10 µM, first compound 10 µM): 51.1%
